Assay results from patent US5463118A, “N-(l-aspartyl)amino alcohol derivative and sweetener containing the same” (Takasago International Corporation, priority 1987, dated 1995).
Like-named read-outs stand apart in the source and are kept apart here. Where a SMILES comes first, the peptide text is derived from it.

Experiments:
[1] = sweetness characteristics in standard cola beverage, nine panelists; conditions: cola beverage stored at 37° C. for 26 days, 1 extremely poor to 9 extremely excellent, sweetener at 30 to 520 ppm
Method: The sweetness characteristics were evaluated in the following manner.
A standard beverage was prepared by adding the following materials to 1600 ml of carbonated water:
Various sweeteners were added to the standard beverage each at a definite concentration. The beverages thus obtained were stored at 37° C. for 26 days and then evaluated by nine panelists according to the following criterion.

[2] = degree of sweetness based on sucrose of compounds of differing absolute configuration; conditions: for Degree of sweetness based on sucrose: Table 2
Method: Compounds of absolute configurations (a) and (b) of (RS,RS) and (S,S) were prepared by way of trial, and the degrees and characteristics of sweetness thereof were evaluated.

[3] = versus APM; cited from earlier work
[4] = among dipeptide esters known so far; cited from earlier work
[5] = stability of aqueous solution (percent remaining by HPLC, 0.1M phosphate buffer pH 4.0, 80° C.); assay type: physicochemical; conditions: general statement
Method: Each of compounds A and B, APM and L-aspartyl-DL-aminomalonic acid methyl fenchyl ester as disclosed in JP-A-49-30566, which will be abbreviated as "AMF" hereinafter, was dissolved in a 0.1M phosphate buffer solution (pH 4.0) at a concentration of 0.2%. The obtained solution was maintained at 80° C. and the percent remaining was monitored by high performance liquid chromatography with a lapse of time to thereby compare the stabilities of these solutions with each other.

solubility in water = assay type: physicochemical
[6] = sweetness characteristics of diluted aqueous solution
[7] = degree of sweetness of L-aspartyl fenchyl amino alcohols by absolute configuration at (a) and (b); conditions: for Degree of sweetness: R1 methyl, R2 fenchyl, absolute configuration (a),(b)
Method: Subsequent studies by the inventors have disclosed that the sweetness essentially depends on the absolute configuration at the (a) and (b) positions in the following formula (i). For example, compounds of the following general formula: [drawing 1]
wherein R1 is methyl group while R2 is fenchyl group:
The absolute configurations at the (a) and (b) positions are determined by resolving amino alcohol derivatives with tartaric acid to thereby give p-bromobenzoic acid amide derivatives of the following formula (ii) and then analyzing the crystal structures thereof with X-rays: [drawing 2]

[8] = taste intensity threshold value by a limit method, panel of five skilled flavorists; conditions: for Taste intensity threshold value: dissolved in water, limit method, five skilled flavorists; for Degree of sweetness: sucrose = 1, from Table 1
Method: Each of (2R,3R)-3-N-(L-aspartyl)amino-1-2-butanol (XVI') obtained in Example 2, 2-8), which will be referred to as "compound A" hereinafter, the (2R,3R)-3-N-(L-aspartyl)amino-1-2-butanol (XVII) obtained in Example 1, 1-15), which will be referred to as "compound B" hereinafter, APM and sucrose was dissolved in water. The threshold value of each compound was determined by a limit method by a panel consisting of five skilled flavorists.

CC(NC(=O)[C@@H](N)CC(=O)O)C(O)C[C@@H]1C[C@@H]2CC[C@@]1(C)C2 (stereo partly shown)
Average score [1]: 5.1
Degree of sweetness based on sucrose [2]: 800 time

CC(NC(=O)[C@@H](N)CC(=O)O)C(O)C[C@@H]1[C@@H]2CC[C@@H](C2)[C@H]1C (stereo partly shown)
Average score [1]: 5.0
Degree of sweetness based on sucrose [2]: 850 time

COC(=O)C(NC(=O)[C@@H](N)CC(=O)O)C(=O)OC1C2(C)CCC(C2)C1(C)C (mixture of isomers) [AMF, L-aspartyl-DL-aminomalonic acid methyl fenchyl ester]
stability at 80° C. and at a pH of 4 [3]: inferior to APM in stability at 80 °C and at a pH of 4
degree of sweetness, in words [4]: highest degree of sweetness

C[C@@H](NC(=O)[C@@H](N)CC(=O)O)[C@H](O)CC1CC2CCC1(C)C2 (stereo partly drawn) [(2R,3R)-3-N-(L-aspartyl)amino-1-(1-methyl-2-norbornyl)-2-butanol]
heat stability [5]: good in heat stability
stability in acidic aqueous solutions [5]: excellent in stability in acidic aqueous solutions
solubility in water (solubility in water): highly soluble in water
disagreeable tastes (bitter taste, bad taste, unpleasant aftertaste) [6]: almost no disagreeable tastes
sweetness characteristics [6]: closely similar to those of sucrose

CC1C2CCC(C2)C1C[C@@H](O)[C@@H](C)NC(=O)[C@@H](N)CC(=O)O (stereo partly drawn) [(2R,3R)-3-N-(L-aspartyl)amino-1-(3-methyl-2-norbornyl)-2-butanol]
heat stability [5]: good in heat stability
stability in acidic aqueous solutions [5]: excellent in stability in acidic aqueous solutions
solubility in water (solubility in water): highly soluble in water
disagreeable tastes (bitter taste, bad taste, unpleasant aftertaste) [6]: almost no disagreeable tastes
sweetness characteristics [6]: closely similar to those of sucrose

C[C@@H]1[C@H]2CC[C@H](C2)[C@H]1C[C@H](O)[C@H](C)NC(=O)[C@@H](N)CC(=O)O [(2S, 3S)-3-N-(L-aspartyl)amino-1-2-butanol]
sweetness, in words [2]: scarcely any sweetness
Degree of sweetness based on sucrose [2]: 0 time

C[C@@H](NC(=O)[C@@H](N)CC(=O)O)[C@H](O)CC1C2(C)CCC(C2)C1(C)C (stereo partly drawn) [(R,R)]
degree of sweetness, in words [7]: highest degree of sweetness
Degree of sweetness [7]: 12,500

C[C@@H](NC(=O)[C@@H](N)CC(=O)O)[C@@H](O)CC1C2(C)CCC(C2)C1(C)C (stereo partly drawn) [(R,S)]
degree of sweetness, in words [7]: scarcely any sweetness
Degree of sweetness [7]: 0

C[C@H](NC(=O)[C@@H](N)CC(=O)O)[C@H](O)CC1C2(C)CCC(C2)C1(C)C (stereo partly drawn) [(S,R)]
degree of sweetness, in words [7]: scarcely any sweetness
Degree of sweetness [7]: 0

C[C@H](NC(=O)[C@@H](N)CC(=O)O)[C@@H](O)CC1C2(C)CCC(C2)C1(C)C (stereo partly drawn) [(S,S)]
degree of sweetness, in words [7]: scarcely any sweetness
Degree of sweetness [7]: 0

COC(=O)[C@H](Cc1ccccc1)NC(=O)[C@@H](N)CC(=O)O [APM, L-aspartyl-L-phenylalanine methyl ester, reference compound] (H-Asp-Phe-OMe)
Taste intensity threshold value [8]: 0.004%
Degree of sweetness [8]: 150 time
Average score [1]: 5.8
Degree of sweetness based on sucrose [2]: 250 time

CC(NC(=O)[C@@H](N)CC(=O)O)C(O)C[C@@H]1C(C)(C)[C@@H]2CC[C@@]1(C)C2 (stereo partly drawn) [C, 3-N-(L-aspartyl)-amino-1-d-α-fenchyl-2-butanol]
Degree of sweetness [7]: 1,800
Average score [1]: 4.1
Degree of sweetness based on sucrose [2]: 1,800 time

C[C@@H]1[C@H]2CC[C@H](C2)[C@H]1C[C@@H](O)[C@@H](C)NC(=O)[C@@H](N)CC(=O)O [Compound A, (2R,3R)-3-N-(L-aspartyl)amino-1-2-butanol]
Taste intensity threshold value [8]: 0.00024%
Degree of sweetness [8]: 2,500 time
Average score [1]: 6.2
Degree of sweetness based on sucrose [2]: 2,500 time

C[C@@H](NC(=O)[C@@H](N)CC(=O)O)[C@H](O)C[C@@H]1C[C@@H]2CC[C@@]1(C)C2 [Compound B, (2R,3R)-3-N-(L-aspartyl)amino-1-2-butanol]
Taste intensity threshold value [8]: 0.00018%
Degree of sweetness [8]: 3,300 time
Average score [1]: 6.3
Degree of sweetness based on sucrose [2]: 3,300 time

OC[C@H]1O[C@@](CO)(O[C@H]2O[C@H](CO)[C@@H](O)[C@H](O)[C@H]2O)[C@@H](O)[C@@H]1O [Sucrose, sucrose, reference compound]
Taste intensity threshold value [8]: 0.6%
Degree of sweetness [8]: 1 time
